122 compounds from a melting point compilation (Tetko et al.) can be followed below.

SMILES strings stand for the structures.

A word on the melting point: it is the temperature of the solid-liquid transition.

In turn, `NS(=O)(=O)C1CCNC1` (configuration not stated) yielded a melting point of 115 to 117 °C. On to `CC(C)(C)c1ccc(-c2nnc(S)n2N)cc1`, for which the melting point was 105 to 106 °C. `CCc1ccc(C(N)=S)cc1` gave a melting point of 47 to 51 °C. `CCNC(=O)COc1cccc(C(C)N)c1` (configuration not stated) came in with a melting point of 79 to 81 °C. Turning to `NCc1ccc(NC(=O)CCCOc2ccccc2)cc1`, the melting point was 96 to 98 °C. `Nc1ccc2ccn(Cc3ccccc3)c2c1` came in with a melting point of 119 to 121 °C. The same measure for `COc1ccc2c(c1)NC(=O)C(C)O2` (configuration not stated): 138 to 140 °C; for `COc1ccc(C(=O)NC2CCS(=O)(=O)C2)cc1N` (configuration not stated): 145 to 147 °C; for `CCOc1cccc(F)c1[N+](=O)[O-]`: 34 to 36 °C. The same measure for `O=C1c2ccccc2-c2n[nH]c3cccc1c23`: 236 to 238 °C; for `O=C(O)C12CC3CC(C1)CC(c1ccccc1)(C3)C2`: 161 to 163 °C; for `NS(=O)(=O)c1ccc(CC(=O)O)s1`: 128 to 130 °C.

For the compound `CC(=O)N1CCC(CCl)CC1`, the melting point was 48 to 50 °C.

As to `N#CC(c1ccc(Br)cc1)N1CCNCC1` (configuration not stated), the melting point lay within 83 to 85 °C. Turning to `O=C(O)c1ccc(-c2ccccc2OC(F)(F)F)cc1F`, the melting point lay within 150 to 152 °C. Regarding `Nc1ncc(Br)cc1S(=O)(=O)N1CCCC1`, the melting point was in the range of 169 to 171 °C.

As to `CCC(N)C(=O)NC(CC)c1ccc(C)cc1` (configuration not stated), the melting point was 59 to 61 °C. For the compound `COc1ccccc1-c1cc(C(=O)O)c2c(C)noc2n1`, the melting point lay within 229 to 231 °C.

As for `CCCNC(=O)c1cccnc1Cl`, the melting point is 63 to 65 °C. In turn, `O=C(O)C1CCCN1C(=O)c1cncn1-c1ccccc1` (configuration not stated) yielded a melting point of 133 to 135 °C. In the case of `CNC1(C(N)=O)CCCC1` it was 99 to 101 °C; in that of `Nc1nonc1-c1cccc(Br)c1`, 137 to 139 °C.

With `NS(=O)(=O)N1CCC(C(=O)O)CC1`, the melting point was 177 to 179 °C. The compound `O=C(O)CCNS(=O)(=O)c1cccc(C(F)(F)F)c1` came in with a melting point of 113 to 115 °C. The same measure for `COC(=O)C1CCN(S(=O)(=O)Cl)CC1`: 66 to 68 °C; for `Cc1cccc2[nH]cc(CCN)c12`: 108 to 110 °C.

For `NC(=S)Cc1cn2cc(Cl)cc(Cl)c2n1`, the melting point is 189 to 191 °C. The compound `Nc1cc(-c2ccc(I)cc2)[nH]n1` displayed a melting point of 186 to 188 °C. In the case of `N#CC(N)c1cnn(-c2ccccc2)c1` (configuration not stated) it was 98 to 100 °C; in that of `O=S(=O)(Nc1cccc(O)c1)c1ccccc1`, 127 to 129 °C; in that of `O=C(O)c1cc2cc(F)ccc2oc1=O`, 185 to 187 °C. On to `COC(=O)c1cc(Cl)c(O)c(Cl)c1`, for which the melting point lay within 117 to 121 °C.

`O=C(O)C1CC(=O)N(C2CCCCCC2)C1` (configuration not stated) gave a melting point of 165 to 167 °C. `N#Cc1cccc(-n2cccn2)c1`: the melting point was 61 to 63 °C.

`Cc1cc(Cl)c2cc([N+](=O)[O-])ccc2n1` returned a melting point of 140 to 142 °C.

Turning to `O=C(O)CSc1csc(-c2ccc(Br)cc2)n1`, the melting point was 178 to 180 °C.

Consider `CC(C)(C)OC(=O)Nc1cc2c(cc1N)OCCO2`, for which the melting point was 119 to 121 °C. `CC(C)Oc1ncc(C(=O)O)cc1Cl` came in with a melting point of 171 to 173 °C.

Take `Nc1nncc(-c2ccc(OC(F)F)cc2)n1`: the melting point fell in the range of 223 to 225 °C. `Cc1nc(Cl)c(C)c(-n2cccn2)n1` returned a melting point of 61 to 63 °C. `Cc1cc(NS(=O)(=O)C(F)(F)F)ccc1C(=O)O` gave a melting point of 169 to 171 °C. In the case of `NC(=O)CCNc1cc(Cl)ncn1` it was 165 to 167 °C; in that of `COc1ccc(C(=O)Nc2cccc(C=O)c2)cc1`, 128 to 130 °C; in that of `O=C(CCCl)NC(=O)NCc1ccccc1`, 117 to 119 °C. With `Cc1cc(C)c(C)c(Oc2c(C(=O)O)c(C)nn2C)c1`, the melting point was 215 to 217 °C. The same measure for `O=C(O)c1ccc(Cl)c(S(=O)(=O)N(Cc2ccccc2)c2cccc(C(F)(F)F)c2)c1`: 201 to 203 °C. For `Cc1ccc(N2CCC(Br)C2=O)cc1` (configuration not stated), the melting point was in the range of 83 to 85 °C.

In the case of `CC(C)Cc1nc(C#N)c(NN)o1`, the melting point was in the range of 102 to 104 °C.

Consider `CC1COCCN1c1ccc(N)cc1` (configuration not stated), for which the melting point fell in the range of 89 to 91 °C. As for `CS(=O)(=O)Nc1ccc(C(=O)O)cc1`, the melting point was in the range of 198 to 200 °C.

Compound `COc1ccc(-c2nc(CO)cs2)cc1` showed a melting point of 74 to 76 °C. On to `O=C(Nc1ccc(Cl)cc1)Nc1ccccc1Br`, for which the melting point was 222 to 224 °C.

Consider `CC1CCC(C(C)C)C(OC(=O)CO)C1` (configuration not stated), for which the melting point lay in the range of 85 to 87 °C. `CCc1ccc(C(=O)O)s1` had a melting point of 60 to 62 °C. The same measure for `CCOC(=O)C1=C(CBr)C(C)(C)OC1=O`: 87 to 89 °C. The same measure for `CCOC(=O)NC1CCC(O)CC1` (configuration not stated): 132 to 134 °C. On to `CC(Cl)C(=O)Nc1cc([N+](=O)[O-])ccc1Cl` (configuration not stated), for which the melting point lay within 120 to 122 °C. The same measure for `Cc1cc(=O)[nH]cc1C(=O)O`: 306 to 308 °C. In the case of `CC(=O)CC(=O)Nc1cccc(C)c1C` it was 91 to 93 °C; in that of `CCOC(=O)c1nc(Br)sc1NC`, 75 to 77 °C. Compound `Nc1ccc(S(N)(=O)=O)cc1[N+](=O)[O-]` returned a melting point of 206 to 208 °C.

Take `O=C(O)c1ccc2[nH]c(=O)oc2c1`: the melting point was in the range of 307 to 309 °C. In the case of `NNC(=S)NC1CC1` it was 100 to 102 °C; in that of `Cc1cc(-c2nnn[nH]2)ccc1F`, 109 to 111 °C.

Take `Cc1[nH]c(-c2ccccn2)nc(=NN)c1C`: the melting point lay in the range of 182 to 184 °C. In turn, `Cc1nnc(N2CCC(=O)CC2)s1` gave a melting point of 95 to 97 °C. The compound `COc1ccccc1NCC(=O)NN` had a melting point of 103 to 105 °C. The same measure for `CC(=O)N(C)c1ccc(S(=O)(=O)Cl)cc1`: 133 to 135 °C; for `CCC(CC)n1ccc(C(=O)O)n1`: 68 to 70 °C; for `N#Cc1ccc(S)cc1C(F)(F)F`: 71 to 73 °C. `Nc1nnc(CC(F)(F)F)o1` displayed a melting point of 132 to 134 °C. The same measure for `NNc1ccc(S(=O)(=O)Nc2cccc(Cl)c2)cc1[N+](=O)[O-]`: 195 to 197 °C; for `O=C(O)CNc1ccc(Cl)cc1`: 142 to 144 °C; for `O=C(O)CCOc1cccc(Br)c1`: 60 to 69 °C.

`CN(C)c1c(F)cc(C(=N)N)cc1F` had a melting point of 95 to 97 °C.

Consider `CCn1c(N)nc2cc(Cl)ccc21`, for which the melting point was 169 to 171 °C. In turn, `Oc1ccc2c(c1)OCC2O` (configuration not stated) had a melting point of 104 to 106 °C. The same measure for `O=C(O)C1Cc2ccccc2CN1C(=O)c1ccco1` (configuration not stated): 143 to 147 °C; for `CNS(=O)(=O)c1ccc(C(=O)O)cc1`: 246 to 250 °C; for `CN(C)C(=O)c1ccc(C#N)cc1`: 93 to 95 °C. The same measure for `O=C(O)c1cccnc1Nc1cc(F)ccc1F`: 248 to 250 °C; for `O=C1CCS(=O)(=O)c2cc(F)c(F)cc21`: 149 to 151 °C. For the compound `NNC(=O)COc1ccccc1F`, the melting point was 109 to 112 °C. `CC(C)c1cc(C(=O)O)nn1-c1ccccc1` registered a melting point of 137 to 139 °C. On to `CC1(C)CNc2ccccc2S1`, for which the melting point was 41 to 43 °C.

`FC(F)n1ccnc1CN1CCNCC1`: the melting point was in the range of 73 to 75 °C. In turn, `Cn1c(S)nnc1CC1CCS(=O)(=O)C1` (configuration not stated) returned a melting point of 237 to 239 °C. In the case of `COC(=O)c1ccc(NC(=O)CCCCl)cc1`, the melting point fell in the range of 128 to 130 °C. In turn, `FC(F)(F)c1cc[nH]n1` returned a melting point of 45 to 47 °C. The compound `Nc1cc(Br)cc(Cl)c1O` had a melting point of 79 to 81 °C. `CC1=NN(c2ccccc2)C(=O)C1=NO`: the melting point was in the range of 131 to 133 °C. The same measure for `Nc1cccn(Cc2ccc(F)cc2)c1=O`: 110 to 112 °C; for `CNc1cc(Cl)ncn1`: 138 to 140 °C. Regarding `O=S(=O)(Cl)c1c(Cl)nc2ccccn12`, the melting point is 101 to 103 °C. In the case of `Cc1n[nH]c(O)c1C#N`, the melting point is 229 to 231 °C.

On to `Cc1cc(S(=O)(=O)Cl)c(C)cc1Br`, for which the melting point fell in the range of 54 to 56 °C. As for `Cc1cc2c(=O)[nH]cnc2s1`, the melting point lay in the range of 258 to 260 °C.

`O=C(O)c1ccc(F)c(S(=O)(=O)N2CCC2)c1`: the melting point was in the range of 180 to 182 °C. `O=C(O)c1ccc(Oc2ccc(F)cc2[N+](=O)[O-])cc1` came in with a melting point of 179 to 181 °C. `COc1ccc(C(N)CN2CCN(C)CC2)cc1` (configuration not stated): the melting point fell in the range of 82 to 84 °C.

`Cc1ccc(OCCCC(=O)Nc2ccc(CN)cc2)cc1` returned a melting point of 97 to 99 °C. As to `CCOc1cc2c(c3[nH]c(C(=O)O)cc13)OC(C)C2` (configuration not stated), the melting point was in the range of 226 to 228 °C. As to `Cc1cc(C)c2c(-c3ccccc3)nc(S)n2n1`, the melting point was 328 to 330 °C. For the compound `Nc1ccccc1CN1CCc2ccccc21`, the melting point lay within 75 to 77 °C.

Take `COC(=O)C1COc2ccccc2O1` (configuration not stated): the melting point was 37 to 39 °C. `Nc1cc(C(=O)N2CCCC2)ccc1Cl`: the melting point is 137 to 139 °C.

`Nn1ccccc1=O`: the melting point was 41 to 43 °C. In the case of `O=C1CCCN1Cc1nnc(S)o1` it was 172 to 174 °C; in that of `CCn1c(S)nc2ccsc2c1=O`, 286 to 288 °C.

Regarding `Brc1ccccc1Cc1nn[nH]n1`, the melting point was 135 to 137 °C. The same measure for `CC(=O)c1nnn(-c2ccc(C)cc2)c1C`: 111 to 113 °C; for `CC(C)Cn1c(S)nc2scc(-c3cccs3)c2c1=O`: 236 to 238 °C. Compound `CCC(=O)c1ccc(C(=O)OC)cc1` returned a melting point of 82 to 84 °C. `COC(=O)CCNc1ccc(C)cc1` yielded a melting point of 59 to 61 °C. `O=S(=O)(c1ccc(F)cc1)C(F)F` yielded a melting point of 51 to 53 °C. For `CCCc1cc(C(=O)O)sc1C`, the melting point lay within 94 to 96 °C. Take `COCCOc1ccc(NC(=O)OCC(F)(F)F)cn1`: the melting point lay within 86 to 88 °C. `COc1ccc(-n2ccc(C(=O)O)n2)cc1` showed a melting point of 182 to 184 °C. The same measure for `CCOC(=O)c1c(N)sc(-c2ccccc2)c1C`: 94 to 96 °C; for `COc1cc(C)ccc1Oc1ccc(F)cc1N`: 60 to 62 °C. The same measure for `Cc1cc(C(=O)O)nn1C(C)C1CC1` (configuration not stated): 130 to 132 °C. `Nc1ccc(-n2cc(S(N)(=O)=O)cn2)nc1` registered a melting point of 218 to 220 °C.
